From article PMC7531004, “Discovery of gramicidin A analogues with altered activities by multidimensional screening of a one-bead-one-compound library” (Nature Communications, 2020)
Where a SMILES comes first, the peptide text is derived from it. [ ]: non-standard residue; d: D form. The star is where a group is joined. NHCH2CH2OH = OCCN*; For = O=C*

Columns and labels:
[1] = H+/Na+ transport assay of bead-derived peptides (one-point); type: biochemical; design: key: relative activity; mean of two control wells = 1.00; conditions: bead-derived peptide solution, EYPC/EYPG LUVs;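 note: relative to parent gramicidin A activity set to 1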
How it was run: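 One-point screen: peptide + pyranine-loaded LUVs, 30 min RT with vortexing, 96-well. Read-out is fluorescence intensity scaled as 100 × (Ix – I0)/(Imax – I0). Imax from Triton X-100, I0 from untreated vesicles, and the mean of the two control wells is set to 1.00.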

[2] = cell viability/%
How it was run: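 Peptide stocks diluted 250× in growth medium; P388 cells 1 × 10^4 cells/mL final; 37 °C, 5% CO2, 92 h. WST-1 + 1-methoxy PMS, 4 h, A415. Output: % viability.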

[3] = tested on: Streptococcus pyogenes SSI-9; experiment: Antibacterial activity assay of bead-derived peptides (three concentrations); type: cell-based; design: key: +++: inhibition by the 640-fold diluted peptide solution; ++: inhibition by the 160-fold diluted solution; +: inhibition by the 40-fold diluted solution; -: no inhibition; conditions: S. pyogenes, bead-derived peptide solution, three concentrations
How it was run: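 First, each peptide stock was diluted 4- and 16-fold in DMSO; next, the three solutions were mixed with S. pyogenes SSI-9 suspension (2 × 10^5 CFU) in cation-adjusted Mueller Hinton Broth plus 5% laked horse blood; finally, plates stood 18 h at 37 °C before checking for grown-cell precipitation.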

CC(C)C[C@@H](NC(=O)[C@H](C)NC(=O)[C@H](NC(=O)[C@H](C)NC(=O)CNC(=O)[C@@H](NC=O)C(C)C)C(C)C)C(=O)N[C@H](C(=O)N[C@@H](C(=O)N[C@@H](Cc1c[nH]c2ccccc12)C(=O)N[C@H](CC(C)C)C(=O)N[C@@H](Cc1c[nH]c2ccccc12)C(=O)N[C@@H](C(=O)N[C@@H](Cc1c[nH]c2ccccc12)C(=O)N[C@@H](C(=O)N[C@@H](Cc1c[nH]c2ccccc12)C(=O)NCCO)[C@H](C)O)[C@H](C)O)C(C)C)C(C)C [compound 13040] (For-VGA[dV]A[dL]V[dV]W[dL]W[dT]W[dT]W-NHCH2CH2OH)
H+/Na+ transport activity normalized against the value of 1 (1.00) [1]: 1.01 | viability [2]: 100% | antibacterial activity [3]: -

CC(C)C[C@@H](NC(=O)[C@H](C)NC(=O)CNC(=O)[C@@H](NC=O)C(C)C)C(=O)N[C@@H](C)C(=O)N[C@H](CC(C)C)C(=O)N[C@H](C(=O)N[C@@H](C(=O)N[C@@H](Cc1c[nH]c2ccccc12)C(=O)N[C@@H](C(=O)N[C@@H](Cc1c[nH]c2ccccc12)C(=O)N[C@H](CC(C)C)C(=O)N[C@@H](Cc1c[nH]c2ccccc12)C(=O)N[C@@H](C(=O)N[C@@H](Cc1c[nH]c2ccccc12)C(=O)NCCO)[C@H](C)O)C(C)C)C(C)C)C(C)C [compound 9823] (For-VGA[dL]A[dL]V[dV]W[dV]W[dL]W[dT]W-NHCH2CH2OH)
H+/Na+ transport activity normalized against the value of 1 (1.00) [1]: 1.08 | viability [2]: 100% | antibacterial activity [3]: -

CC(C)C[C@@H](NC(=O)[C@H](Cc1c[nH]c2ccccc12)NC(=O)[C@H](NC(=O)[C@@H](NC(=O)[C@H](NC(=O)[C@H](C)NC(=O)[C@H](NC(=O)[C@H](C)NC(=O)CNC(=O)[C@@H](NC=O)C(C)C)C(C)C)[C@H](C)O)C(C)C)C(C)C)C(=O)N[C@@H](Cc1c[nH]c2ccccc12)C(=O)N[C@@H](C(=O)N[C@@H](Cc1c[nH]c2ccccc12)C(=O)N[C@@H](C(=O)N[C@@H](Cc1c[nH]c2ccccc12)C(=O)NCCO)C(C)C)C(C)C [compound 9055] (For-VGA[dV]A[dT]V[dV]W[dL]W[dV]W[dV]W-NHCH2CH2OH)
H+/Na+ transport activity normalized against the value of 1 (1.00) [1]: 1.01 | viability [2]: 83.5% | antibacterial activity [3]: -

CC(C)C[C@@H](NC(=O)[C@H](C)NC(=O)CNC(=O)[C@@H](NC=O)C(C)C)C(=O)N[C@@H](C)C(=O)N[C@H](CC(C)C)C(=O)N[C@H](C(=O)N[C@H](CC(C)C)C(=O)N[C@@H](Cc1c[nH]c2ccccc12)C(=O)N[C@H](CC(C)C)C(=O)N[C@@H](Cc1c[nH]c2ccccc12)C(=O)N[C@H](CC(C)C)C(=O)N[C@@H](Cc1c[nH]c2ccccc12)C(=O)N[C@@H](C(=O)N[C@@H](Cc1c[nH]c2ccccc12)C(=O)NCCO)[C@H](C)O)C(C)C [compound 5006] (For-VGA[dL]A[dL]V[dL]W[dL]W[dL]W[dT]W-NHCH2CH2OH)
H+/Na+ transport activity normalized against the value of 1 (1.00) [1]: 1.12 | viability [2]: 100% | antibacterial activity [3]: -

CC(C)C[C@@H](NC(=O)[C@H](C)NC(=O)[C@H](NC(=O)[C@H](C)NC(=O)CNC(=O)[C@@H](NC=O)C(C)C)C(C)C)C(=O)N[C@H](C(=O)N[C@@H](C(=O)N[C@@H](Cc1c[nH]c2ccccc12)C(=O)N[C@H](CC(C)C)C(=O)N[C@@H](Cc1c[nH]c2ccccc12)C(=O)N[C@@H](C(=O)N[C@@H](Cc1c[nH]c2ccccc12)C(=O)N[C@H](CC(C)C)C(=O)N[C@@H](Cc1c[nH]c2ccccc12)C(=O)NCCO)C(C)C)[C@H](C)O)C(C)C [compound 6842] (For-VGA[dV]A[dL]V[dT]W[dL]W[dV]W[dL]W-NHCH2CH2OH)
H+/Na+ transport activity normalized against the value of 1 (1.00) [1]: 1.14 | viability [2]: 100% | antibacterial activity [3]: -

CC(C)C[C@@H](NC(=O)[C@H](Cc1c[nH]c2ccccc12)NC(=O)[C@@H](CC(C)C)NC(=O)[C@H](Cc1c[nH]c2ccccc12)NC(=O)[C@H](NC(=O)[C@H](Cc1c[nH]c2ccccc12)NC(=O)[C@@H](CC(C)C)NC(=O)[C@@H](NC(=O)[C@H](NC(=O)[C@H](C)NC(=O)[C@H](NC(=O)[C@H](C)NC(=O)CNC(=O)[C@@H](NC=O)C(C)C)[C@H](C)O)C(C)C)C(C)C)C(C)C)C(=O)N[C@@H](Cc1c[nH]c2ccccc12)C(=O)NCCO [compound 8827] (For-VGA[dT]A[dV]V[dL]W[dV]W[dL]W[dL]W-NHCH2CH2OH)
H+/Na+ transport activity normalized against the value of 1 (1.00) [1]: 1.22 | viability [2]: 80.7% | antibacterial activity [3]: -

CC(C)C[C@@H](NC(=O)[C@H](C)NC(=O)CNC(=O)[C@@H](NC=O)C(C)C)C(=O)N[C@@H](C)C(=O)N[C@H](CC(C)C)C(=O)N[C@H](C(=O)N[C@H](CC(C)C)C(=O)N[C@@H](Cc1c[nH]c2ccccc12)C(=O)N[C@@H](C(=O)N[C@@H](Cc1c[nH]c2ccccc12)C(=O)N[C@@H](C(=O)N[C@@H](Cc1c[nH]c2ccccc12)C(=O)N[C@@H](C(=O)N[C@@H](Cc1c[nH]c2ccccc12)C(=O)NCCO)[C@H](C)O)[C@H](C)O)C(C)C)C(C)C [compound 7253] (For-VGA[dL]A[dL]V[dL]W[dV]W[dT]W[dT]W-NHCH2CH2OH)
H+/Na+ transport activity normalized against the value of 1 (1.00) [1]: 1.03 | viability [2]: 45.4% | antibacterial activity [3]: -

CC(C)C[C@@H](NC(=O)[C@H](C)NC(=O)[C@H](NC(=O)[C@H](C)NC(=O)CNC(=O)[C@@H](NC=O)C(C)C)C(C)C)C(=O)N[C@H](C(=O)N[C@@H](C(=O)N[C@@H](Cc1c[nH]c2ccccc12)C(=O)N[C@H](CC(C)C)C(=O)N[C@@H](Cc1c[nH]c2ccccc12)C(=O)N[C@@H](C(=O)N[C@@H](Cc1c[nH]c2ccccc12)C(=O)N[C@H](CC(C)C)C(=O)N[C@@H](Cc1c[nH]c2ccccc12)C(=O)NCCO)[C@H](C)O)[C@H](C)O)C(C)C [compound 4195] (For-VGA[dV]A[dL]V[dT]W[dL]W[dT]W[dL]W-NHCH2CH2OH)
H+/Na+ transport activity normalized against the value of 1 (1.00) [1]: 1.19 | viability [2]: 90.6% | antibacterial activity [3]: -

CNC(=O)C[C@@H](NC(=O)[C@H](C)NC(=O)CNC(=O)[C@@H](NC=O)C(C)C)C(=O)N[C@@H](C)C(=O)N[C@@H](C(=O)N[C@H](C(=O)N[C@@H](C(=O)N[C@@H](Cc1c[nH]c2ccccc12)C(=O)N[C@H](CC(C)C)C(=O)N[C@@H](Cc1c[nH]c2ccccc12)C(=O)N[C@H](CC(C)C)C(=O)N[C@@H](Cc1c[nH]c2ccccc12)C(=O)N[C@H](CC(C)C)C(=O)N[C@@H](Cc1c[nH]c2ccccc12)C(=O)NCCO)C(C)C)C(C)C)C(C)C [compound 10673] (For-VGA[dD](NHMe)A[dV]V[dV]W[dL]W[dL]W[dL]W-NHCH2CH2OH)
H+/Na+ transport activity normalized against the value of 1 (1.00) [1]: 1.01 | viability [2]: 97.7% | antibacterial activity [3]: -

CC(C)C[C@@H](NC(=O)[C@H](Cc1c[nH]c2ccccc12)NC(=O)[C@@H](CC(C)C)NC(=O)[C@H](Cc1c[nH]c2ccccc12)NC(=O)[C@@H](CC(C)C)NC(=O)[C@H](Cc1c[nH]c2ccccc12)NC(=O)[C@H](NC(=O)[C@@H](NC(=O)[C@H](NC(=O)[C@H](C)NC(=O)[C@H](NC(=O)[C@H](C)NC(=O)CNC(=O)[C@@H](NC=O)C(C)C)[C@H](C)O)C(C)C)C(C)C)C(C)C)C(=O)N[C@@H](Cc1c[nH]c2ccccc12)C(=O)NCCO [compound 3786] (For-VGA[dT]A[dV]V[dV]W[dL]W[dL]W[dL]W-NHCH2CH2OH)
H+/Na+ transport activity normalized against the value of 1 (1.00) [1]: 1.18 | viability [2]: 100% | antibacterial activity [3]: -

CC(C)[C@H](NC=O)C(=O)NCC(=O)N[C@@H](C)C(=O)N[C@@H](C(=O)N[C@@H](C)C(=O)N[C@@H](C(=O)N[C@H](C(=O)N[C@@H](C(=O)N[C@@H](Cc1c[nH]c2ccccc12)C(=O)N[C@@H](C(=O)N[C@@H](Cc1c[nH]c2ccccc12)C(=O)N[C@@H](C(=O)N[C@@H](Cc1c[nH]c2ccccc12)C(=O)N[C@@H](C(=O)N[C@@H](Cc1c[nH]c2ccccc12)C(=O)NCCO)[C@H](C)O)C(C)C)C(C)C)C(C)C)C(C)C)C(C)C)C(C)C [compound 1983] (For-VGA[dV]A[dV]V[dV]W[dV]W[dV]W[dT]W-NHCH2CH2OH)
H+/Na+ transport activity normalized against the value of 1 (1.00) [1]: 1.00 | viability [2]: 100% | antibacterial activity [3]: -

CNC(=O)C[C@@H](NC(=O)[C@H](Cc1c[nH]c2ccccc12)NC(=O)[C@@H](CC(C)C)NC(=O)[C@H](Cc1c[nH]c2ccccc12)NC(=O)[C@@H](CC(C)C)NC(=O)[C@H](Cc1c[nH]c2ccccc12)NC(=O)[C@H](NC(=O)[C@@H](NC(=O)[C@H](NC(=O)[C@H](C)NC(=O)[C@H](NC(=O)[C@H](C)NC(=O)CNC(=O)[C@@H](NC=O)C(C)C)C(C)C)C(C)C)C(C)C)C(C)C)C(=O)N[C@@H](Cc1c[nH]c2ccccc12)C(=O)NCCO [compound 7049] (For-VGA[dV]A[dV]V[dV]W[dL]W[dL]W[dD](NHMe)W-NHCH2CH2OH)
H+/Na+ transport activity normalized against the value of 1 (1.00) [1]: 1.10 | viability [2]: 100% | antibacterial activity [3]: -

CC(C)C[C@@H](NC(=O)[C@H](Cc1c[nH]c2ccccc12)NC(=O)[C@H](NC(=O)[C@H](Cc1c[nH]c2ccccc12)NC(=O)[C@@H](CC(C)C)NC(=O)[C@H](Cc1c[nH]c2ccccc12)NC(=O)[C@H](NC(=O)[C@@H](NC(=O)[C@H](NC(=O)[C@H](C)NC(=O)[C@H](NC(=O)[C@H](C)NC(=O)CNC(=O)[C@@H](NC=O)C(C)C)C(C)C)C(C)C)C(C)C)C(C)C)[C@H](C)O)C(=O)N[C@@H](Cc1c[nH]c2ccccc12)C(=O)NCCO [compound 521] (For-VGA[dV]A[dV]V[dV]W[dL]W[dT]W[dL]W-NHCH2CH2OH)
H+/Na+ transport activity normalized against the value of 1 (1.00) [1]: 1.05 | viability [2]: 100% | antibacterial activity [3]: +
